From patent publication US7122523B2, “Methods for inhibiting tumor cell proliferation” (University of Southern California, priority 2001, dated 2006)

Legend:
Assay in all cases: Human tumor cell clonigenic assay (tritiated thymidine incorporation)
Assay type in all cases: cell-based
[1] = test system: Ovarian Cancer-High Grade Clear Cell Carcinoma; settings: Sample 16, Ovarian Cancer-High Grade Clear Cell Carcinoma; AII(1–7) 0.1 ng/ml–10 μg/ml
Procedure: (§1) Primary and metastatic tumors obtained from the Department of Obstetrics and Gynecology Pathology Section and the Surgical Pathology Division of Los Angeles County/University of Southern California were minced into pieces less than 2 mm in diameter in the presence of RPMI-1640 (Gibco, Grand Island, NTY) containing 15% heat-inactivated fetal calf serum. Each gram of tumor tissue was treated with 10–20 mL of enzyme medium, consisting of Hanks' balanced salt solution with 0.03% DNAse (500 Kunitz units/mL; Sigma Chemical Co., St. Louis, Mo.) and 0.14% collagenase type I (Sigma). Tumor fragments were stirred for 90 minutes at 37° C. in the presence of 5% CO2. After enzymatic digestion, the free cells were decanted through 40-gauge mesh strainers and centrifuged at 200×g for 10 minutes. The supernatant was removed and viable cells were resuspended in RPMI 1640. The cell number was determined using a hematocytometer and 0.04% trypan blue dye. The cells were then centrifuged and the pellet resuspended in RPMI 1640 at 5×10^5 cells/mL.
(§2) Human cancer cells were obtained from operative specimens provided by the Division of Gynecologic Oncology, Department of Obstetrics and Gynecology, or the Department of Surgical Pathology of Los Angeles County/University of Southern California School of Medicine. Tumor cells were maintained in vitro in RPMI 1640 medium supplemented with 15% heat-inactivated fetal calf serum, 100 μg/mL streptomycin, fungizone 25 μg/mL, and 100 μ/mL penicillin.
(§3) Cells were cultured on an underlayer of 0.5% agarose (Bethesda Research Labs, Bethesda, Md.) prepared from a 3% stock of agarose with added penicillin (100 units/mL), streptomycin (100 μg/mL), and fungizone (1.25 μg/mL) (GIBCO) as per a modification of an established procedure. The cloning efficiency of this assay varied depending upon the source of the tissue. One milliliter of this 0.5% agarose mixture was added to each 16×16-mm well of a 24-well plate and the plates were refrigerated for 10 minutes at 4° C. Cells were suspended in 0.6% agarose in RPMI-1640 supplemented with antibiotics and 15% fetal calf serum. One aliquot (0.5 mL) of cell suspension was added to each underlaver at a final concentration of 5×10^4 cells/well, and the plates were refrigerated 10 minutes at 4° C.
(§4) After a 72-hour incubation at 37° C., 5 μCi of tritiated thymidine (specific activity 18.2 Ci/mmol; New England Nuclear, Boston, Mass.) was layered over each well, and the plates were returned to the incubator for an additional 24 hours, incorporation of thymidine was terminated by transferring the agarose layers to 10-mL glass centrifuge tubes (Kimble, Division of Owens, Ill.) and boiling the tubes for 15 minutes in a water bath. The volume was brought to 8 mL, the tubes were centrifuged, and the pellets were washed with phosphate-buffered saline and then dissolved in 3 mL of 0.85 N KOH for 1 hour at 80° C. The tubes were cooled on ice and the hydrolysates were precipitated by adding 30 μL of 1% human serum albumin (Sigma) and 2.4 mL of ice-cold trichloroacetic acid. After overnight storage at 4° C., precipitates were collected by centrifugation. Pellets were washed with 5% trichloroacetic acid, dissolved in 0.3 mL of 0.075 N KOH, and transferred to scintillation vials to which 5 mL of Liquiscint (National Diagnostics, Somerville, N.J.) were added. Radioactivity per vial was measured in a Nuclear-Chicago liquid scintillation counter.

[2] = test system: Serous tumor of low malignant potential; settings: Sample 6, Serous tumor of low malignant potential; AII(1–7) 0.1 ng/ml–10 μg/ml
Procedure: as §1, §2, §3, §4

[3] = test system: Ovarian carcinoma-clear cell; settings: Sample 3, Ovarian carcinoma-clear cell; AII(1–7) 0.1 ng/ml–10 μg/ml
Procedure: as §1, §2, §3, §4

[4] = test system: Metastatic uterine carcinosarcoma to the ovary; settings: Sample 5, Metastatic uterine carcinosarcoma to the ovary; AII(1–7) 0.1 ng/ml–10 μg/ml
Procedure: as §1, §2, §3, §4

[5] = test system: Ovarian Serous papillary carcinoma; settings: Sample 31, Ovarian Serous papillary carcinoma
Procedure: as §1, §2, §3, §4

[6] = test system: Metastatic Ovarian Papillary Carcinoma to Omentum; settings: Sample 13, Metastatic Ovarian Papillary Carcinoma to Omentum; AII(1–7) 0.1 ng/ml–10 μg/ml
Procedure: as §1, §2, §3, §4

[7] = test system: Metastatic colon adenocarcinoma; settings: Sample 26, Metastatic colon adenocarcinoma; AII(1–7) 0.1 ng/ml–10 μg/ml
Procedure: as §1, §2, §3, §4

Ovarian adenocarcinoma = settings: for Effect of AII(1–7) on proliferation: AII(1–7) 0.1 ng/ml–10 μg/ml; for IC50 (ng/ml) of AII(1–7): proliferation
Procedure: as §1, §2, §3, §4

Uterine Carcinosarcoma = settings: Sample 17, Uterine Carcinosarcoma; AII(1–7) 0.1 ng/ml–10 μg/ml
Procedure: as §1, §2, §3, §4

[8] = test system: Endometrial adenocarcinoma; settings: for Effect of AII(1–7) on proliferation: AII(1–7) 0.1 ng/ml–10 μg/ml; for IC50 (ng/ml) of AII(1–7): proliferation
Procedure: as §1, §2, §3, §4

[9] = test system: Colonic adenocarcinoma, Gr 3–4, moderately to poorly differentiated; settings: Sample 36, Colonic adenocarcinoma
Procedure: as §1, §2, §3, §4

[10] = test system: Ovarian papillary serous carcinoma; settings: Sample 2, Ovarian papillary serous carcinoma
Procedure: as §1, §2, §3, §4

Leiomyosarcoma = settings: Sample 1, Leiomyosarcoma; AII(1–7) 0.1 ng/ml–10 μg/ml
Procedure: as §1, §2, §3, §4

[11] = test system: Invasive, moderately differentiated adenocarcinoma of colon; settings: Sample 29, Invasive, AII(1–7) 0.1 ng/ml–10 μg/ml
Procedure: as §1, §2, §3, §4

[12] = Sample 27, Ovarian adenocarcinoma
[13] = Sample 32, Ovarian adenocarcinoma
[14] = Sample 4, Endometrial adenocarcinoma
[15] = Sample 8, Endometrial adenocarcinoma
[16] = Sample 11, Endometrial adenocarcinoma
[17] = Sample 18, Endometrial adenocarcinoma
[18] = Sample 22, Endometrial adenocarcinoma
[19] = Sample 23, Endometrial adenocarcinoma

CC[C@H](C)[C@H](NC(=O)[C@H](Cc1ccc(O)cc1)NC(=O)[C@@H](NC(=O)[C@H](CCCNC(=N)N)NC(=O)[C@@H](N)CC(=O)O)C(C)C)C(=O)N[C@@H](Cc1c[nH]cn1)C(=O)N1CCC[C@H]1C(=O)O [AII(1–7), Asp-Arg-Val-Tyr-Ile-His-Pro]
Effect of AII(1–7) on proliferation [1]: No Effect
Effect of AII(1–7) on proliferation [2]: No Effect
Effect of AII(1–7) on proliferation [3]: No Effect
Effect of AII(1–7) on proliferation [4]: Equivocal
Effect of AII(1–7) on proliferation ([5]; AII(1–7) 0.1 ng/ml–10 μg/ml): Decreased
IC50 (ng/ml) of AII(1–7) ([5]; proliferation): 2.34 ng/mL
Effect of AII(1–7) on proliferation [6]: No Effect
Effect of AII(1–7) on proliferation [7]: Variable
Effect of AII(1–7) on proliferation (Ovarian adenocarcinoma; [12]): Decreased
IC50 (ng/ml) of AII(1–7) (Ovarian adenocarcinoma; [12]): 3.6 ng/mL
Effect of AII(1–7) on proliferation (Ovarian adenocarcinoma; [13]): Decreased
IC50 (ng/ml) of AII(1–7) (Ovarian adenocarcinoma; [13]): 3.4 ng/mL
Effect of AII(1–7) on proliferation (Ovarian adenocarcinoma; Sample 33, Ovarian adenocarcinoma): No Effect
Effect of AII(1–7) on proliferation (Uterine Carcinosarcoma): No Effect
Effect of AII(1–7) on proliferation [8, 14]: Decreased
IC50 (ng/ml) of AII(1–7) [8, 14]: 1.0 ng/mL
Effect of AII(1–7) on proliferation [8, 15]: Decreased
IC50 (ng/ml) of AII(1–7) [8, 15]: 1.0 ng/mL
Effect of AII(1–7) on proliferation ([8]; Sample 9, Endometrial adenocarcinoma): Decreased
Effect of AII(1–7) on proliferation [8, 16]: No Effect
IC50 (ng/ml) of AII(1–7) [8, 16]: No Effect
Effect of AII(1–7) on proliferation [8, 17]: No Effect
IC50 (ng/ml) of AII(1–7) [8, 17]: No Effect
Effect of AII(1–7) on proliferation [8, 18]: Decreased
IC50 (ng/ml) of AII(1–7) [8, 18]: 0.1 ng/mL
Effect of AII(1–7) on proliferation [8, 19]: Decreased
IC50 (ng/ml) of AII(1–7) [8, 19]: 4.0 ng/mL
Effect of AII(1–7) on proliferation ([9]; AII(1–7) 0.1 ng/ml–10 μg/ml): Decreased
IC50 (ng/ml) of AII(1–7) ([9]; proliferation): 2.55 ng/mL
Effect of AII(1–7) on proliferation ([10]; AII(1–7) 0.1 ng/ml–10 μg/ml): Decreased
IC50 (ng/ml) of AII(1–7) ([10]; proliferation): 3.0 ng/mL
Effect of AII(1–7) on proliferation (Leiomyosarcoma): No Effect
Effect of AII(1–7) on proliferation [11]: No Effect
